Laboratory results as given in patent publication US7192922B2, “Method of treating left ventricular dysfunction” (Allegheny-Singer Research Institute, priority 2002, dated 2007).
Like-named read-outs stand apart in the source and are kept apart here.

What was measured:
[1] = test system: normal dogs and dogs with advanced dilated cardiomyopathy; test: Acute graded infusion, hemodynamic effects in conscious chronically instrumented dogs; assay type: in vivo, dog; settings: for effects on left ventricular pressure, left ventricular dP/dt, cardiac output, heart rate: graded infusions for ten minutes, six normal dogs and six dogs with advanced DCM
From the text: FIGS. 2a–2d show the dose response to rGLP-1 in normal conscious dogs and conscious dogs with advanced DCM compared to the response to the sympathomimetic, dobutamine.
FIG. 1 illustrates characteristic instrumentation of conscious, chronically instrumented dogs studied in the laboratory. Under sterile surgical technique, the animals are instrumented as indicated and allowed to recover fully from their surgery. At the time, they are taught to lie quietly on the experimental table before study. To determine if acute GLP-1 (7–36 amide) infusion is associated with hemodynamic effects in conscious chronically instrumented dogs, graded infusions for ten minutes at doses of 1.25, 2.5, 5, 10 and 20 pmol/kg/min in six normal dogs and in six dogs with advanced dilated cardiomyopathy were studied. The response of the graded infusion to the classic iontopic agent, Dobutamine, (2.5, 5, 7.5, 10 and 15 μ/kg/min.) was compared. […] Nikolaidis, L A, Hentosz, T, Doverspike, A, et al., “Catecholamine stimulation is associated with impaired myocardial O2 utilization in heart failure,” Cardiovas. Res., 2002;53:392–404, incorporated by reference herein.

[2] = test system: myocardial substrate uptake; test: Myocardial substrate uptake and metabolic parameters in dogs with advanced DCM, 48 h infusion (Table 1); assay type: in vivo, dog; settings: for Glucose myocardial uptake / Lactate myocardial uptake / NE (transmyocardial norepinephrine uptake) / NEFA myocardial uptake: GLP-1 group (n = 9); for Insulin/Glucagon: ratio insulin (pmol/L) to glucagon (pg/ml), GLP-1 group
Protocol: (§1) A 48 hour continuous intravenous infusion of GLP-1 (7–36 amide), (1.5 pmol/kg/min) in five normal dogs to determine the hemodynamic effect of chronic infusion in the absence of dilated cardiomyopathy was conducted. […] FIGS. 3–5 illustrates the effects of GLP-1 (7–36 amide) infusion (1.5 pmol/kg/min) intravenously for 48 hours in 20 conscious, chronically instrumented animals with advanced heart failure. These effects have been compared to similarly instrumented animals with advanced heart failure that received a control saline infusion of equal volume ([…]) illustrate the hemodynamic effects of chronic GLP-1 infusion in advanced DCM. GLP-1 (7–36 amide) infusion was associated with a restoration of left ventricular pressure, improvement in contractility, improvement in cardiac output, and reduction in heart rate and LVEDP. […] GLP-1 was associated with restoration of endothelial dependent vaso dilatation response to acetylcholine (FIG. 7). […] GLP-1 had little effect on increased plasma insulin levels in the setting of euglycemia.

[3] = test system: conscious dogs with advanced DCM; test: 48 hour intravenous infusion, hemodynamics and myocardial sympathetic activity in conscious dogs with advanced heart failure (DCM); assay type: in vivo, dog
From the text: FIGS. 3a–3d show the effects of r GLP-1 on LV systolic pressure, LV end diastolic pressure, LV dP/dt, and heart rate in conscious dogs with advanced DCM compared to saline control.
FIGS. 4a–4d show the effects of rGLP-1 on cardiac output, stroke volume, LV ejection fraction, systemic vascular resistance in conscious dogs with advanced DCM compared to saline control.
FIGS. 5a and 5b show the effects of rGLP-1 on stroke work and LV external efficiency in conscious dogs with advanced DCM compared to saline control.
FIGS. 6a and 6b show the effects of rGLP-1 on transmyocardial norepinephrine uptake as a reflection of sympathetic drive to the myocardium in conscious dogs with advanced DCM compared to saline controls.
as §1

plasma insulin = settings: cited from earlier work; for plasma insulin levels: GIP 2.0, GLP-1 1.5 pmol·kg−1·min−1
normal dogs = test: 48 hour continuous intravenous infusion, hemodynamic effect in normal dogs; assay type: in vivo, dog; settings: 1.5 pmol/kg/min i.v. 48 hours; five normal dogs
Protocol: as §1

[4] = test system: endothelial dependent coronary vasodilation; test: Coronary flow responses to acetylcholine and nitroglycerin in conscious dogs with advanced DCM after 48-hour infusion; assay type: in vivo, dog
Protocol: FIGS. 7a and 7b show the effects of rGLP-1 on endothelial dependent coronary vasodilation in conscious dogs. Advanced DCM was associated with impaired coronary flow responses to acetylcholine. These responses were restored following 48-hour infusion of rGLP-1. The response to the non-endothelial dependent vasodilator, nitroglycerin was unaffected.
as §1

[5] = test system: patients with large myocardial infarction (LVEF<35%); test: 72 hour continuous intravenous infusion in adults with severe acute myocardial infarction, LV function; assay type: in vivo, human; settings: 1.5 pmol/kg/min i.v. 72 hours after percutaneous coronary intervention; ten adults vs eleven on standard care
Protocol: The effects of continuous intravenous infusion of GLP-1 (1.5 pmol/kg/min) intravenously for 72 hours was studied in ten adults presenting with severe acute myocardial infarction. These were compared to eleven adults with similar large myocardial infarction (LVEF<35%) all of whom underwent percutaneous coronary intervention and subsequently were treated for 72 hours thereafter.

restrained rats = settings: rat, in vivo, sc; cited from earlier work
[6] = Baseline (before CHF and infusion)
[7] = advanced DCM, vs saline controls
[8] = 1.5 pmol/kg/min i.v. 48 hours, vs saline
[9] = hyperglycemia 10.4 mmol/l, hyperglycemia alone ~280 pmol/l
[10] = hyperglycemia 187 mg/dl, hyperglycemia alone 47 μU/ml

In the case of CC(CCc1ccc(O)cc1)NCCc1ccc(O)c(O)c1 (centres unmarked) [Dobutamine], the “hemodynamic effects of graded infusion, heart failure” value ([1]; dogs with heart failure (advanced DCM), graded infusion) is reported as “de-sensitized effects” and the “hemodynamic effects of graded infusion, normal dogs” value ([1]; normal dogs, graded infusion) is reported as “predictable effects”.

For GLP-1 (7–36 amide), the Glucose myocardial uptake ([2]; 24 hrs of infusion) was 8.72 ± 1.05 µmol/min, the Lactate myocardial uptake ([2]; 24 hrs of infusion) was 3.61 ± 0.62 µmol/min and the “NE (transmyocardial norepinephrine uptake)” value ([2]; 24 hrs of infusion) was 26.3 ± 3.1 pmol/min. For the same compound, the NEFA myocardial uptake ([2]; 24 hrs of infusion) was 4.53 ± 0.58 µmol/min, the Glucose myocardial uptake ([2]; 48 hrs of infusion) was 7.00 ± 0.94 µmol/min and the Lactate myocardial uptake ([2]; 48 hrs of infusion) was 4.04 ± 0.74 µmol/min. The “NE (transmyocardial norepinephrine uptake)” value ([2]; 48 hrs of infusion) was 30.5 ± 4.9 pmol/min, the NEFA myocardial uptake ([2]; 48 hrs of infusion) was 5.16 ± 0.73 µmol/min and the Glucose myocardial uptake [2, 6] was 6.67 ± 1.22 µmol/min. For the same compound, the Lactate myocardial uptake [2, 6] was 4.78 ± 1.04 µmol/min, the “NE (transmyocardial norepinephrine uptake)” value [2, 6] was 30.9 ± 4.8 pmol/min and the NEFA myocardial uptake [2, 6] was 5.23 ± 0.83 µmol/min. For the same compound, the Glucose myocardial uptake ([2]; CHF (before infusion)) was 3.44 ± 0.81 µmol/min, the Lactate myocardial uptake ([2]; CHF (before infusion)) was 2.64 ± 0.91 µmol/min and the “NE (transmyocardial norepinephrine uptake)” value ([2]; CHF (before infusion)) was 18.7 ± 3.6 pmol/min. The NEFA myocardial uptake ([2]; CHF (before infusion)) was 3.17 ± 0.61 µmol/min, the “myocardial glucose uptake” value [2, 7] was “enhanced” and the “ratio of insulin (pmol/L) to glucagon (pg/ml)” value [2, 7] was “significant increase”. For the same compound, the Insulin/Glucagon ([2]; 48 hrs of infusion) was 3.12 ± 0.24, the Insulin/Glucagon [2, 6] was 1.36 ± 0.21 and the Insulin/Glucagon ([2]; CHF (before infusion)) was 1.79 ± 0.29. For the same compound, the plasma insulin levels ([2]; setting of euglycemia, advanced DCM) was “little effect”, the LVEDP [3, 8] was “reduction” and the cardiac output [3, 8] was “improvement”. The contractility [3, 8] was “improvement”, the heart rate [3, 8] was “reduction” and the left ventricular pressure [3, 8] was “restoration”. The myocardial sympathetic activity ([3]; infusion compared to saline) was “suppression”, the plasma insulin levels (plasma insulin; [9]) was roughly 2000 pmol/L and the plasma insulin levels (plasma insulin; [10]) was 333 μU/ml. For the same compound, the “relative potency as incretin” value (plasma insulin; hyperglycemia, infusion) was “more potent than GIP”, the “hemodynamic effects of chronic infusion” value (normal dogs) was “no significant hemodynamic effects” and the “endothelial dependent vasodilatation (coronary flow) response to acetylcholine” value [4] was “restoration”. For the same compound, the “response to the non-endothelial dependent vasodilator nitroglycerin” value [4] was “unaffected”, the “endothelial dependent vasodilatation (coronary flow) response to acetylcholine” value ([4]; listed as rGLP-1) was “restored” and the “effects on left ventricular pressure, left ventricular dP/dt, cardiac output, heart rate” value [1] was “no significant, dose related effects”. The “effects on left ventricular pressure, left ventricular dP/dt, cardiac output, heart rate” value ([1]; listed as rGLP-1) was “no acute hemodynamic effects” and the left ventricular function [5] was “improvement”.

In the case of exendin-4 [excendin 4], the “blood pressure and heart rate” value (restrained rats) is given as “hypertension and tachycardia”.

For “glucose-dependent insulinotropic polypeptide [GIP]”, the plasma insulin levels (plasma insulin; [9]) is given as roughly 900 pmol/L, the plasma insulin levels (plasma insulin; [10]) is given as 150 μU/ml and the “insulinotropic action during euglycemia” value (plasma insulin; normal subjects, euglycemia) is given as “not”.
